Assay results reported in PubChem BioAssay AID1259407 (Chemical Carcinogenesis Research Information System (CCRIS), 2018).
Calls of active or inactive are those of the source. How the calls were made is not given here.

Test system: CCRIS mutagenicity, Ames/micronucleus/aberration tests
Assay: CCRIS mutagenicity studies
[1] = Test System: AMES SALMONELLA TYPHIMURIUM, Strain/Indicator: TA98, Metabolic Activation: NONE, Method: STANDARD PLATE
[2] = Test System: AMES SALMONELLA TYPHIMURIUM, Strain/Indicator: TA100, Metabolic Activation: NONE, Method: STANDARD PLATE
[3] = Test System: AMES SALMONELLA TYPHIMURIUM, Strain/Indicator: TA98, Metabolic Activation: NONE, Method: PREINCUBATION
[4] = Test System: AMES SALMONELLA TYPHIMURIUM, Strain/Indicator: TA100, Metabolic Activation: NONE, Method: PREINCUBATION

O=C1N=NC(=O)C2C=CC=CC12 (configuration not stated)
mutagenic call (Test System: AMES SALMONELLA TYPHIMURIUM, Strain/Indicator: TA98, Metabolic Activation: HAMSTER, LIVER, S-9, AROCLOR 1254, Method: STANDARD PLATE): inactive; negative | mutagenic call [1]: inactive; negative | mutagenic call (Test System: AMES SALMONELLA TYPHIMURIUM, Strain/Indicator: TA98, Metabolic Activation: RAT, LIVER, S-9, AROCLOR 1254, Method: STANDARD PLATE): inactive; negative | mutagenic call (Test System: AMES SALMONELLA TYPHIMURIUM, Strain/Indicator: TA100, Metabolic Activation: HAMSTER, LIVER, S-9, AROCLOR 1254, Method: STANDARD PLATE): inactive; negative | mutagenic call [2]: inactive; negative | mutagenic call (Test System: AMES SALMONELLA TYPHIMURIUM, Strain/Indicator: TA100, Metabolic Activation: RAT, LIVER, S-9, AROCLOR 1254, Method: STANDARD PLATE): inactive; negative | mutagenic call (Test System: AMES SALMONELLA TYPHIMURIUM, Strain/Indicator: TA1535, Metabolic Activation: HAMSTER, LIVER, S-9, AROCLOR 1254, Method: STANDARD PLATE): inactive; negative | mutagenic call (Test System: AMES SALMONELLA TYPHIMURIUM, Strain/Indicator: TA1535, Metabolic Activation: NONE, Method: STANDARD PLATE): inactive; negative | mutagenic call (Test System: AMES SALMONELLA TYPHIMURIUM, Strain/Indicator: TA1535, Metabolic Activation: RAT, LIVER, S-9, AROCLOR 1254, Method: STANDARD PLATE): inactive; negative | mutagenic call (Test System: AMES SALMONELLA TYPHIMURIUM, Strain/Indicator: TA1537, Metabolic Activation: HAMSTER, LIVER, S-9, AROCLOR 1254, Method: STANDARD PLATE): inactive; negative | mutagenic call (Test System: AMES SALMONELLA TYPHIMURIUM, Strain/Indicator: TA1537, Metabolic Activation: NONE, Method: STANDARD PLATE): inactive; negative | mutagenic call (Test System: AMES SALMONELLA TYPHIMURIUM, Strain/Indicator: TA1537, Metabolic Activation: RAT, LIVER, S-9, AROCLOR 1254, Method: STANDARD PLATE): inactive; negative | mutagenic call (Test System: AMES SALMONELLA TYPHIMURIUM, Strain/Indicator: TA1538, Metabolic Activation: HAMSTER, LIVER, S-9, AROCLOR 1254, Method: STANDARD PLATE): inactive; negative | mutagenic call (Test System: AMES SALMONELLA TYPHIMURIUM, Strain/Indicator: TA1538, Metabolic Activation: NONE, Method: STANDARD PLATE): inactive; negative | mutagenic call (Test System: AMES SALMONELLA TYPHIMURIUM, Strain/Indicator: TA1538, Metabolic Activation: RAT, LIVER, S-9, AROCLOR 1254, Method: STANDARD PLATE): inactive; negative | mutagenic call (Test System: Mouse lymphoma, Strain/Indicator: L5178Y (tk+/tk-), Metabolic Activation: None, Method: Suspension/plate): inactive; negative | mutagenic call (Test System: Mouse lymphoma, Strain/Indicator: L5178Y (tk+/tk-), Metabolic Activation: Rat, liver, S-9, Aroclor 1254, Method: Suspension/plate): active; positive

Nc1nc(Cl)nc2c1ncn2[C@H]1C[C@H](O)[C@@H](CO)O1
mutagenic call (End Point: In vivo chromosomal aberrations, Test System: Bone marrow cells, Species: Mouse, Strain/Sex: Balb/C/Male and female, Route: Intraperitoneal): inactive; negative

Nc1cc(Cl)c(N)c(Cl)c1
mutagenic call (End Point: IN VITRO CHROMOSOMAL ABERRATIONS, Test System: CHO CELLS, Metabolic Activation: NONE): active; positive; weak response

CNC(=O)c1cccc(NCC(=O)NCCc2ccc(OC)c(OC)c2)c1
mutagenic call [3]: inactive; negative | mutagenic call (Test System: AMES SALMONELLA TYPHIMURIUM, Strain/Indicator: TA98, Metabolic Activation: S-9, Method: PREINCUBATION): inactive; negative | mutagenic call [4]: inactive; negative | mutagenic call (Test System: AMES SALMONELLA TYPHIMURIUM, Strain/Indicator: TA100, Metabolic Activation: S-9, Method: PREINCUBATION): inactive; negative | mutagenic call (Test System: AMES SALMONELLA TYPHIMURIUM, Strain/Indicator: TA1535, Metabolic Activation: NONE, Method: PREINCUBATION): inactive; negative | mutagenic call (Test System: AMES SALMONELLA TYPHIMURIUM, Strain/Indicator: TA1535, Metabolic Activation: S-9, Method: PREINCUBATION): inactive; negative | mutagenic call (Test System: AMES SALMONELLA TYPHIMURIUM, Strain/Indicator: TA1537, Metabolic Activation: NONE, Method: PREINCUBATION): inactive; negative | mutagenic call (Test System: AMES SALMONELLA TYPHIMURIUM, Strain/Indicator: TA1537, Metabolic Activation: S-9, Method: PREINCUBATION): inactive; negative | mutagenic call (Test System: E. COLI, Strain/Indicator: WP2 UVRA, Metabolic Activation: NONE, Method: PREINCUBATION): inactive; negative | mutagenic call (Test System: E. COLI, Strain/Indicator: WP2 UVRA, Metabolic Activation: S-9, Method: PREINCUBATION): inactive; negative

O=[N+]([O-])c1ccc2c(c1)CCc1cc3c(cc1-2)CCCC3
mutagenic call (Test System: AMES SALMONELLA TYPHIMURIUM, Strain/Indicator: TA98(1,8-DNP6), Metabolic Activation: NONE): active; positive | mutagenic call (Test System: AMES SALMONELLA TYPHIMURIUM, Strain/Indicator: TA98(1,8-DNP6), Metabolic Activation: RAT, LIVER, S-9, AROCLOR 1254): active; positive | mutagenic call (Test System: AMES SALMONELLA TYPHIMURIUM, Strain/Indicator: TA98(NR), Metabolic Activation: NONE): active; positive | mutagenic call (Test System: AMES SALMONELLA TYPHIMURIUM, Strain/Indicator: TA98(NR), Metabolic Activation: RAT, LIVER, S-9, AROCLOR 1254): active; positive | mutagenic call (Test System: AMES SALMONELLA TYPHIMURIUM, Strain/Indicator: TA98, Metabolic Activation: NONE): active; positive | mutagenic call (Test System: AMES SALMONELLA TYPHIMURIUM, Strain/Indicator: TA98, Metabolic Activation: RAT, LIVER, S-9, AROCLOR 1254): active; positive | mutagenic call (Test System: AMES SALMONELLA TYPHIMURIUM, Strain/Indicator: TA100(NR), Metabolic Activation: NONE): active; positive | mutagenic call (Test System: AMES SALMONELLA TYPHIMURIUM, Strain/Indicator: TA100(NR), Metabolic Activation: RAT, LIVER, S-9, AROCLOR 1254): active; positive | mutagenic call (Test System: AMES SALMONELLA TYPHIMURIUM, Strain/Indicator: TA100, Metabolic Activation: NONE): active; positive | mutagenic call (Test System: AMES SALMONELLA TYPHIMURIUM, Strain/Indicator: TA100, Metabolic Activation: RAT, LIVER, S-9, AROCLOR 1254): active; positive | mutagenic call (Test System: AMES SALMONELLA TYPHIMURIUM, Strain/Indicator: TA104, Metabolic Activation: NONE): active; positive | mutagenic call (Test System: AMES SALMONELLA TYPHIMURIUM, Strain/Indicator: TA104, Metabolic Activation: RAT, LIVER, S-9, AROCLOR 1254): active; positive

Nc1ccc2c(c1)oc1ccccc12
mutagenic call [1]: active; positive | mutagenic call (Test System: AMES SALMONELLA TYPHIMURIUM, Strain/Indicator: TA98, Metabolic Activation: S-9, PHENOBARBITAL AND 5,6-BENZOFLAVONE, Method: STANDARD PLATE): active; positive | mutagenic call [2]: inactive; negative | mutagenic call (Test System: AMES SALMONELLA TYPHIMURIUM, Strain/Indicator: TA100, Metabolic Activation: S-9, PHENOBARBITAL AND 5,6-BENZOFLAVONE, Method: STANDARD PLATE): active; positive

Nc1cc(Cl)cc(Cl)c1O
mutagenic call [3]: inactive; negative | mutagenic call [1]: inactive; negative | mutagenic call [4]: inactive; negative | mutagenic call [2]: inactive; negative | mutagenic call (Test System: CHINESE HAMSTER V-79, Strain/Indicator: V-79/6-THIOGUANINE, Metabolic Activation: NONE): inactive; negative

ClC(CBr)CBr
mutagenic call (Test System: AMES SALMONELLA TYPHIMURIUM, Strain/Indicator: TA100, Metabolic Activation: RAT, LIVER, MICROSOMES, PHENOBARBITAL, NADPH COFACTORS, Method: STANDARD PLATE): active; positive | mutagenic call (Test System: AMES SALMONELLA TYPHIMURIUM, Strain/Indicator: TA100, Metabolic Activation: RAT, LIVER, MICROSOMES, PHENOBARBITAL, Method: STANDARD PLATE): inactive; negative
